From ChEMBL document CHEMBL3217601, “Optimized glucuronidation of dual pharmacology -2 agonists/M3 antagonists for the treatment of COPD” (Medchemcomm, 2011)
pEC50, pKi: −log10 of the molar value. Values belong to the compound of their own block, whether it stands above or below them. Calls of active or inactive are those of the source. No cut-off for these calls is given here.

Legend:
[1] = Intrinsic clearance in human liver microsomes assessed as glucuronidation in absence of NADPH and presence of microsomal activator Brij58 and UDPGA
[2] = target: Beta-1 adrenergic receptor (Homo sapiens, UniProt P08588); assay: Agonist activity at beta-1 adrenoceptor (unknown origin)
Chain of Beta-1 adrenergic receptor (P08588 whole entry): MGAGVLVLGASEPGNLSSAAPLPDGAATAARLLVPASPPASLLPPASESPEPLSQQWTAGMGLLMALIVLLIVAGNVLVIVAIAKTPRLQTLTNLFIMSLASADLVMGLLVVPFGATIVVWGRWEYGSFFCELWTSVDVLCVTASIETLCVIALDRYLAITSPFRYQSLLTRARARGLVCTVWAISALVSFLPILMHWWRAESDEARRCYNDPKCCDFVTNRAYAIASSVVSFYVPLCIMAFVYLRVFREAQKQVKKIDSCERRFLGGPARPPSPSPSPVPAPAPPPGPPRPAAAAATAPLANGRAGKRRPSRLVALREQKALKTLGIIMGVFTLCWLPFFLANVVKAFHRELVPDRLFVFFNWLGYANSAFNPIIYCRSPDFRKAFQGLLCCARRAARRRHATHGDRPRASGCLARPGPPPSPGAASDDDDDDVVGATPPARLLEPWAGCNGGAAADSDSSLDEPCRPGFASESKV

[3] = target: T1, Beta-2 adrenergic receptor (Homo sapiens, UniProt P07550); assay: Agonist activity at human beta-2 adrenoceptor expressed in CHO cells assessed as stimulation of intracellular cAMP production; assay type: functional, cell-based
Target sequence in this assay (P07550 whole entry): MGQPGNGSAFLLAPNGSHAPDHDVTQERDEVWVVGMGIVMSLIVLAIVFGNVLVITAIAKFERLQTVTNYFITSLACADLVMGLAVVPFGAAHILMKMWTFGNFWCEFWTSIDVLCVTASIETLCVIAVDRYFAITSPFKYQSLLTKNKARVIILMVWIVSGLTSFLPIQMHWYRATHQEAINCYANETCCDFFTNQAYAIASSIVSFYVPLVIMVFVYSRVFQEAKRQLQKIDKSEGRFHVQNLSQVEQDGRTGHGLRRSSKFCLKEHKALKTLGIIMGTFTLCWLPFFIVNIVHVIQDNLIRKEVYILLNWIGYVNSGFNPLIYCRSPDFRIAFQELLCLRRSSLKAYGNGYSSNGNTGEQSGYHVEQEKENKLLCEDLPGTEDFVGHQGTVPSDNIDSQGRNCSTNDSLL

[4] = Drug metabolism of the compound in human liver microsomes assessed as glucuronidation in absence of NADPH and presence of microsomal activator Brij58 and UDPGA
[5] = target: T2, Muscarinic acetylcholine receptor M3 (Homo sapiens, UniProt P20309); assay: Displacement of [3H]-N-methyl scopolamine from human cloned muscarinic M3 receptor
Target sequence in this assay (P20309 whole entry): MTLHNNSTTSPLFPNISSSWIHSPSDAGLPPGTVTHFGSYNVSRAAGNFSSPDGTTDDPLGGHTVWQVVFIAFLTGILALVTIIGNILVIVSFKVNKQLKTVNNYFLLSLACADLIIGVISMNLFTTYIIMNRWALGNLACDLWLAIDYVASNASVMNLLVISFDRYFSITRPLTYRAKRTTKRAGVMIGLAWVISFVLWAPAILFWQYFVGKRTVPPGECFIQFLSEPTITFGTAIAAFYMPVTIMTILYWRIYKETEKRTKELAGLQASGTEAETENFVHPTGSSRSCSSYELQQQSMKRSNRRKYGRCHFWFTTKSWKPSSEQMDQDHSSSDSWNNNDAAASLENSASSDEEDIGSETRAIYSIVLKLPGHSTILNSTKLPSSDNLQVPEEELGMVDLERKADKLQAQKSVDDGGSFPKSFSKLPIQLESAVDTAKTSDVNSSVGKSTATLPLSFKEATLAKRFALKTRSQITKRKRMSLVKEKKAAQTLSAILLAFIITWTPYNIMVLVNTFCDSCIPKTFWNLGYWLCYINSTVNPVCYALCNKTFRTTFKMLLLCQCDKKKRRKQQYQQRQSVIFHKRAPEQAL

Canis familiaris [6] = assay: Bronchodilatory activity in intratracheally dosed dog assessed as inhibition of methacholine-induced bronchoconstriction; assay type: functional, Canis lupus familiaris
Canis familiaris [7] = assay: Bronchodilatory activity in intratracheally dosed dog assessed as inhibition of methacholine-induced bronchoconstriction in presence of propranolol; assay type: functional, organism-based; conditions: Canis lupus familiaris
[8] = target: Beta-2 adrenergic receptor (Cavia porcellus, UniProt Q8K4Z4); assay: Agonist activity at beta-2 adrenoceptor in guinea pig trachea assessed as inhibition of histamine-induced muscle contraction
Chain of Beta-2 adrenergic receptor (Cavia porcellus, UniProt Q8K4Z4) (Q8K4Z4 whole entry): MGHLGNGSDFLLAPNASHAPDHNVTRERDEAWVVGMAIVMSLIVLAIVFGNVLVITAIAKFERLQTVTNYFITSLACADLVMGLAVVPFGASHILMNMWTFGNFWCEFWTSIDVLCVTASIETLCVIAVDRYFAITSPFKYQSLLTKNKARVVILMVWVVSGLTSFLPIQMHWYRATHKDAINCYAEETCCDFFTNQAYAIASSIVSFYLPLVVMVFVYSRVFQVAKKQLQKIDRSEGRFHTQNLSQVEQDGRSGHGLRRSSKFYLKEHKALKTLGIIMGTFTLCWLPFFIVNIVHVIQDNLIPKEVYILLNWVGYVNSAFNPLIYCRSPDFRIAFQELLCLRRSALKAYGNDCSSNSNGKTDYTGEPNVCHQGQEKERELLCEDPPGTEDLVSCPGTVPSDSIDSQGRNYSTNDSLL

[9] = Modulation of beta-2 adrenoceptor/muscarinic M3 receptor in guinea pig trachea assessed as inhibition of electric field stimulated muscle contraction by measuring release of endogenous acetylcholine; assay type: tissue-based, Cavia porcellus
Cavia porcellus [10] = species on record: Cavia porcellus; assay: Bronchodilatory activity in guinea pig in presence of propranolol; assay type: functional, organism-based
[11] = AUC in guinea pig at 0.2 mg/kg, po; assay type: ADME, organism-based, Cavia porcellus; design: dose 0.2 mg/kg, route oral; conditions: plasma
Oryctolagus cuniculus = species on record: Oryctolagus cuniculus; assay: Toxicity in rabbit cough model; assay type: organism-based; conditions: in vivo
[12] = target: Muscarinic acetylcholine receptor M3 (Cavia porcellus, UniProt Q8VH26); assay: Antagonist activity at muscarinic M3 receptor in guinea pig trachea assessed as inhibition of electric field stimulated muscle contraction by measuring release of endogenous acetylcholine in presence of propranolol
Chain of Muscarinic acetylcholine receptor M3 (Cavia porcellus, UniProt Q8VH26) (Q8VH26 whole entry): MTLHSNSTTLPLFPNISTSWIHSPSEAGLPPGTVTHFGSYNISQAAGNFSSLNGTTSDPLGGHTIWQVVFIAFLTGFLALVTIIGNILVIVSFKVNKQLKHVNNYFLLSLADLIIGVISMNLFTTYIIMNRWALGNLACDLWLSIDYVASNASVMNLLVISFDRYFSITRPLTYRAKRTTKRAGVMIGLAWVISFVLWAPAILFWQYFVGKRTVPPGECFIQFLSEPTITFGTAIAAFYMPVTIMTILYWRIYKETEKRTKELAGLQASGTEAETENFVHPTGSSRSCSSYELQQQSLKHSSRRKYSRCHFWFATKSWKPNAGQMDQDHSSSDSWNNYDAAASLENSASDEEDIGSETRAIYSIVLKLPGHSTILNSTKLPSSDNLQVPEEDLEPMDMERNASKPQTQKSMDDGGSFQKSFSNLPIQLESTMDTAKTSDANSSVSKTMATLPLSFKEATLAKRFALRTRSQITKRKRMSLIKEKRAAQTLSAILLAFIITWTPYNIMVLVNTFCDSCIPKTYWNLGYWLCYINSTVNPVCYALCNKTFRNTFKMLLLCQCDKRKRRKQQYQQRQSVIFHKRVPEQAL

[13] = Clearance in rat at 0.2 mg/kg, po; assay type: ADME, organism-based; design: dose 0.2 mg/kg, route oral; conditions: in vivo
[14] = AUC in rat at 2 mg/kg, iv; assay type: ADME, organism-based; design: dose 2 mg/kg, route intravenous; conditions: plasma
Canis familiaris [15] = assay: Bronchodilatory activity in intratracheally dosed dog assessed as duration of inhibition of methacholine-induced bronchoconstriction; assay type: functional, Canis lupus familiaris
Cavia porcellus [16] = species on record: Cavia porcellus; assay: Bronchodilatory activity in guinea pig in presence of NK2 agonist BANA; assay type: functional, organism-based
[17] = Half life in rat at 0.2 mg/kg, po; assay type: ADME, organism-based; design: dose 0.2 mg/kg, route oral; conditions: in vivo
[18] = target: T1, Beta-2 adrenergic receptor; assay: Ratio of EC50 for human beta-2 adrenoceptor measured after drug washout to EC50 for human beta-2 adrenoceptor
Target sequence in this assay (P07550 whole entry, looked up): as the sequence (P07550 whole entry) above

[19] = target: Muscarinic acetylcholine receptor M3 (Cavia porcellus) (UniProt Q8VH26); assay: Antagonist activity at muscarinic M3 receptor in guinea pig trachea assessed as time taken for muscle tone at submaximal concentration of compound to recover by 50% of inhibition induced in presence of propranolol
Chain of Muscarinic acetylcholine receptor M3 (Cavia porcellus) (Q8VH26 1-587): as the sequence (Q8VH26 whole entry) above

[20] = target: T2, Muscarinic acetylcholine receptor M3; assay: Displacement of [3H]-N-methyl scopolamine from human cloned muscarinic M3 receptor assessed as time taken to reach 50% of total [3H]-NMS
Target sequence in this assay (P20309 whole entry, looked up): as the sequence (P20309 whole entry) above

[21] = AUC in rat at 0.2 mg/kg, po; assay type: ADME, organism-based; design: dose 0.2 mg/kg, route oral; conditions: plasma
[22] = Clearance in guinea pig at 0.2 mg/kg, po; assay type: ADME, organism-based, Cavia porcellus; design: dose 0.2 mg/kg, route oral; conditions: in vivo
[23] = Genotoxicity in micronucleus (unknown origin)
[24] = Stability of the compound at 70 degC and 75% relative humidity assessed as impurity after 7 days; assay type: physicochemical; conditions: 168 h
[25] = Clearance in rat at 2 mg/kg, iv; assay type: ADME, organism-based; design: dose 2 mg/kg, route intravenous; conditions: in vivo
Cavia porcellus [26] = species on record: Cavia porcellus; assay: Modulation of beta-2 adrenoceptor/muscarinic M3 receptor in guinea pig trachea assessed as time taken for muscle tone at submaximal concentration of compound to recover by 50% of inhibition induced; assay type: tissue-based
[27] = Half life in guinea pig at 0.2 mg/kg, po; assay type: ADME, organism-based, Cavia porcellus; design: dose 0.2 mg/kg, route oral; conditions: in vivo
[28] = Drug metabolism in human hepatocytes assessed as formation of phenol glucuronide and sulfate metabolite by LC/MS/MS analysis; assay type: ADME, cell-based, Hepatocyte
Canis familiaris [29] = assay: Bronchodilatory activity in intratracheally dosed dog assessed as inhibition of methacholine-induced bronchoconstriction in presence of NK2 agonist BANA; assay type: functional, organism-based; conditions: Canis lupus familiaris
Salmonella typhimurium = assay: Genotoxicity in Salmonella typhimurium assessed by Ames test; assay type: toxicity, organism-based; conditions: salmonella enterica subsp. enterica serovar typhimurium
[30] = Therapeutic index, ratio of cardiovascular toxicity in dog to bronchodilatory activity in intratracheally dosed dog; assay type: organism-based, Canis lupus familiaris, Trachea; conditions: in vivo, inhaled or intranasal, read-out: TI

- microsomal CLint [1]: 45 µL/min/mg
- pEC50 [2]: < 5.00
- pEC50 [3]: 6.71
- microsomal CLint [4]: 16 µL/min/mg
- pKi [5]: 8.36
Structure (SMILES): CS(=O)(=O)Nc1cc([C@@H](O)CNCCCCCCCCCCCN2CCC(OC(=O)Nc3ccccc3-c3ccc(O)c(Cl)c3)CC2)ccc1O

- microsomal CLint [1]: 20 µL/min/mg
- pEC50 [2]: < 5.00
- pEC50 [3]: 7.59
- microsomal CLint [4]: 4 µL/min/mg
- pKi [5]: 8.66
Structure (SMILES): CS(=O)(=O)Nc1cc([C@@H](O)CNCCCCCCCCCN2CCC(OC(=O)Nc3ccccc3-c3ccc(O)cc3)CC2)ccc1O

- microsomal CLint [1]: 79 µL/min/mg
- pEC50 [2]: < 5.00
- pEC50 [3]: 7.44
- microsomal CLint [4]: 32 µL/min/mg
- pKi [5]: 7.42
Structure (SMILES): Cc1cc(C)c(NC(=O)OC2CCN(CCCCCCCCCNC[C@H](O)c3ccc(O)c(NS(C)(=O)=O)c3)CC2)c(-c2ccc(O)c(Cl)c2)c1

- microsomal CLint [1]: 7 µL/min/mg
- pEC50 [2]: < 5.00
- pEC50 [3]: 7.38
- microsomal CLint [4]: 13 µL/min/mg
- pKi [5]: 8.89
Structure (SMILES): CS(=O)(=O)Nc1cc([C@@H](O)CNCCCCCCCCCN2C[C@@H]3[C@@H](COC(=O)Nc4ccccc4-c4ccc(O)c(Cl)c4)[C@@H]3C2)ccc1O

- pEC50 [8]: 8.24
- pEC50 [9]: 8.14
- AUC [11]: 920 ng·h/mL
- microsomal CLint [1]: 23 µL/min/mg
- pEC50 [12]: 7.92
- CL/F [13]: 14 mL/min/kg
- pEC50 [2]: < 5.00
- AUC [14]: 125 ng·h/mL
- half-life [17]: 1.6 h
- Ratio EC50 [18]: 1.5
- TIME [19]: > 11 h
- pEC50 [3]: 8.43
- TIME [20]: 1.95 h
- AUC [21]: 256 ng·h/mL
- CL/F [22]: 3.6 mL/min/kg
- Stability [24]: Stable
- clearance [25]: 164 mL/min/kg
- microsomal CLint [4]: 24 µL/min/mg
- TIME (Cavia porcellus [26]): > 11 h
- half-life [27]: 0.8 h
- Drug metabolism [28]: Active
- pKi [5]: 9.14
Structure (SMILES): CS(=O)(=O)Nc1cc([C@@H](O)CNCCCCCCCCCN2CCC(OC(=O)Nc3ccccc3-c3ccc(O)c(Cl)c3)CC2)ccc1O
- ID50 (Canis familiaris [6]): 50 µg
- Activity (Canis familiaris [7]): Active
- Activity (Cavia porcellus [10]): Active
- Activity (Oryctolagus cuniculus): Non-toxic
- Time (Canis familiaris [15]): 14 h
- Activity (Cavia porcellus [16]): Active
- Activity [23]: Non-toxic
- Activity (Canis familiaris [29]): Active
- Activity (Salmonella typhimurium): Non-toxic

- microsomal CLint [1]: 17 µL/min/mg
- pEC50 [2]: < 5.00
- pEC50 [3]: 7.70
- microsomal CLint [4]: 24 µL/min/mg
- pKi [5]: 8.96
Structure (SMILES): CS(=O)(=O)Nc1cc([C@@H](O)CNCCCCCCCCN2CCC(OC(=O)Nc3ccccc3-c3ccc(O)c(Cl)c3)CC2)ccc1O

Structure (SMILES): OCc1cc(C(O)CNCCCCCCOCCCCc2ccccc2)ccc1O (stereo unspecified) [SALMETEROL]
- selectivity ratio [30]: 3

- microsomal CLint [1]: 16 µL/min/mg
- pEC50 [2]: < 5.00
- pEC50 [3]: 7.59
- microsomal CLint [4]: 30 µL/min/mg
- pKi [5]: 8.30
Structure (SMILES): CS(=O)(=O)Nc1cc([C@@H](O)CNCCCCCCCCCN2CCC(OC(=O)Nc3ccccc3-c3ccc(O)c(F)c3)CC2)ccc1O

- microsomal CLint [1]: 40 µL/min/mg
- pEC50 [2]: < 5.00
- pEC50 [3]: 7.13
- microsomal CLint [4]: < 2 µL/min/mg
- pKi [5]: 9.41
Structure (SMILES): CS(=O)(=O)Nc1cc([C@@H](O)CNCCCCCCCCCN2CCC(OC(=O)Nc3ccccc3-c3ccccc3)CC2)ccc1O

- microsomal CLint [1]: 17 µL/min/mg
- pEC50 [2]: < 5.00
- pEC50 [3]: 7.05
- microsomal CLint [4]: < 2 µL/min/mg
- pKi [5]: 7.74
Structure (SMILES): CS(=O)(=O)Nc1cc([C@@H](O)CNCCCCCCCCCN2CCC(OC(=O)Nc3ccccc3-c3ccccc3O)CC2)ccc1O

- microsomal CLint [1]: 26 µL/min/mg
- pEC50 [2]: < 5.00
- pEC50 [3]: 6.89
- microsomal CLint [4]: < 3.5 µL/min/mg
- pKi [5]: 8.43
Structure (SMILES): CS(=O)(=O)Nc1cc([C@@H](O)CNCCCCCCCCCN2CCC(OC(=O)Nc3ccccc3-c3cccc(O)c3)CC2)ccc1O

- microsomal CLint [1]: 22 µL/min/mg
- pEC50 [2]: < 5.00
- microsomal CLint [4]: 19 µL/min/mg
- pKi [5]: 8.32
Structure (SMILES): Cc1ccc(NC(=O)OC2CCN(CCCCCCCCCNC[C@H](O)c3ccc(O)c(NS(C)(=O)=O)c3)CC2)c(-c2ccc(O)c(Cl)c2)c1

- microsomal CLint [1]: 25 µL/min/mg
- pEC50 [2]: < 5.00
- pEC50 [3]: 7.64
- microsomal CLint [4]: 17 µL/min/mg
- pKi [5]: 8.96
Structure (SMILES): CS(=O)(=O)Nc1cc([C@@H](O)CNCCCCCCCCCN2CCC(OC(=O)Nc3ccc(F)cc3-c3ccc(O)c(Cl)c3)CC2)ccc1O

- microsomal CLint [1]: 20 µL/min/mg
- pEC50 [2]: < 5.00
- pEC50 [3]: 6.99
- microsomal CLint [4]: < 3.5 µL/min/mg
- pKi [5]: 7.66
Structure (SMILES): CS(=O)(=O)Nc1cc([C@@H](O)CNCCCCCCCCCN2CCC(OC(=O)Nc3ccccc3-c3cc(F)cc(F)c3O)CC2)ccc1O
